US20080194482A1, “Selective Apac2 Receptor Peptide Agonists” (priority 2005, published 2008)
Square brackets hold non-standard residues; d marks the D form. Peptide text beside a SMILES is read from it. * marks the point of attachment. Orn = NCCC[C@H](N)C(=O)O; Hexanoyl = CCCCCC(=O)*; Aib = CC(C)(N)C(=O)O

Legend:
rat VPAC2 receptor = target: T1, rat VPAC2 receptor (Rattus norvegicus, UniProt P35000); assay: DiscoveRx cAMP assay, in vitro potency at rat VPAC2 receptor; assay type: cell-based; conditions: CHO-PO cells transiently transfected with rat VPAC2; cAMP generation; mean of two independent runs
T1 construct: expressed in transfected cells; host or cells: CHO-PO (transient, Lipofectamine)
T1 sequence (P35000 23-437): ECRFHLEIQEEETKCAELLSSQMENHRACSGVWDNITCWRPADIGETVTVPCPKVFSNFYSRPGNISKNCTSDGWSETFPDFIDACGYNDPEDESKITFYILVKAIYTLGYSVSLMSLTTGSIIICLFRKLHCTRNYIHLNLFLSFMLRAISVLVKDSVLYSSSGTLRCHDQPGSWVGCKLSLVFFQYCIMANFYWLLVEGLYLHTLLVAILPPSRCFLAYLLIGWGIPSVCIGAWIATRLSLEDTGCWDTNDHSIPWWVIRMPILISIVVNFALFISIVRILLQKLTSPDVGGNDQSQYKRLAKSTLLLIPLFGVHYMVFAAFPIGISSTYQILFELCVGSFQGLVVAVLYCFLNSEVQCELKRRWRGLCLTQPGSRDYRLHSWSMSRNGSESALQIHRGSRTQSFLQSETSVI

rat VPAC1 receptor = target: T2, rat VPAC1 receptor (Rattus norvegicus, UniProt P30083); assay: DiscoveRx cAMP assay, in vitro potency at rat VPAC1 receptor; assay type: cell-based; conditions: CHO-PO cells transiently transfected with rat VPAC1; cAMP generation; mean of two independent runs
T2 construct: expressed in transfected cells; host or cells: CHO-PO (transient, Lipofectamine)
T2 sequence (P30083 31-459): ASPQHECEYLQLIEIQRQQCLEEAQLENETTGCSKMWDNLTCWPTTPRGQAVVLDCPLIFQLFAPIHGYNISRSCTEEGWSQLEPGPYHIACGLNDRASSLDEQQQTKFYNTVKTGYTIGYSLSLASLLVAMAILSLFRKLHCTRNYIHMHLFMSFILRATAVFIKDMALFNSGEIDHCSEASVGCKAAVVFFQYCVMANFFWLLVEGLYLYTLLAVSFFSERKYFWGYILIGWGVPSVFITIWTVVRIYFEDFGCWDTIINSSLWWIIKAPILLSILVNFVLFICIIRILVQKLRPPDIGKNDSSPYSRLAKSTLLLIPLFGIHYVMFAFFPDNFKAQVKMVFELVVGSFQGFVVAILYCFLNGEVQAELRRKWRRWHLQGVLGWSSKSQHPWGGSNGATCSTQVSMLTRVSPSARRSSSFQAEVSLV
Protocol: DiscoveRx: CHO-PO cells are transiently transfected with rat VPAC1 or VPAC2 receptor DNA using commercially available transfection reagents (Lipofectamine from Invitrogen). The cells are seeded at a density of 10,000/well in a 96-well plate and are allowed to grow for 3 days in […] culture medium. At day 3, the assay is performed.
On the day of the experiment, the medium is removed. Also, the cells are washed twice. The cells are incubated in assay buffer plus IBMX for 15 minutes at room temperature. Afterwards, the stimuli are added and are dissolved in assay buffer. The stimuli are present for 30 minutes. Then, the assay buffer is gently removed. The cell lysis reagent of the DiscoveRx cAMP kit is added. Thereafter, the standard protocol for developing the cAMP signal as described by the manufacturer is used (DiscoveRx Inc., USA). EC50 values for cAMP generation are calculated from the raw signal or are based on absolute cAMP levels as determined by a standard curve performed on each plate.
Results for each agonist are the mean of two independent runs. Rat VPAC1 and VPAC2 results are only generated using the DiscoveRx assay.

human VPAC2 [1] = target: T3, human VPAC2 (Homo sapiens, UniProt P41587); assay: Alpha screen cAMP assay, in vitro potency at human VPAC2 receptor; assay type: cell-based; conditions: cAMP generation; single result from two analyses in a single run, some values average of more than one experiment
T3 construct: expressed in transfected cells
T3 sequence (P41587 24-438): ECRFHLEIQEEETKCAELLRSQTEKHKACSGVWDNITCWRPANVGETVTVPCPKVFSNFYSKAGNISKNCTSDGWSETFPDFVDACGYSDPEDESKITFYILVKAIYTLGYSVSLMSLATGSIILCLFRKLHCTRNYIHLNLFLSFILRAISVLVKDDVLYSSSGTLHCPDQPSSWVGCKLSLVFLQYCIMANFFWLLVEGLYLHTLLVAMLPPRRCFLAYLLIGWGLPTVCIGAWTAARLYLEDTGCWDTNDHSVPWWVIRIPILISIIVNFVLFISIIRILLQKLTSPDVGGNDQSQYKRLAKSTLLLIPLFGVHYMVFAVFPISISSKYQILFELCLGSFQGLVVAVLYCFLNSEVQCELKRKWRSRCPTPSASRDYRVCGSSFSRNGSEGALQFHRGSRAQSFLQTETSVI
Protocol: Alpha screen: Cells are washed in the culture flask once with PBS. Then, the cells are rinsed with enzyme free dissociation buffer. The dissociated cells are removed. The cells are then spun down and washed in stimulation buffer. For each data point, 50,000 cells suspended in stimulation buffer are used. To this buffer, Alpha screen acceptor beads are added along with the stimuli. This mixture is incubated for 60 minutes. Lysis buffer and Alpha screen donor beads are added and are incubated for 60 to 120 minutes. The Alpha screen signal (indicative of intracellular cAMP levels) is read in a suitable instrument (e.g. AlphaQuest from Perkin-Elmer). Steps including Alpha screen donor and acceptor beads are performed in reduced light. The EC50 for cAMP generation is calculated from the raw signal or is based on absolute cAMP levels as determined by a standard curve performed on each plate.
Results for each agonist are, at minimum, from two analyses performed in a single run. For some agonists, the results are the mean of more than one run. The tested peptide concentrations are: 10000, 1000, 100, 10, 3, 1, 0.1, 0.01, 0.003, 0.001, 0.0001 and 0.00001 nM.

human VPAC2 [2] = target: T3, human VPAC2; assay: Filter binding assay, 125I-labeled VIP tracer, VPAC2 membranes; conditions: read-out: Human VPAC2 Receptor Binding (IC50; nM)
Protocol: (§1) For this assay, the solutions and equipment include:
(§2) Presoak solution: 0.5% Polyethyleneamine in Aqua dest
(§3) Buffer for flushing filter plates: 25 mM HEPES pH 7.4
(§4) Blocking buffer: 25 mM HEPES pH 7.4; 0.2% protease free BSA
(§5) Assay buffer: 25 mM HEPES pH 7.4; 0.5% protease free BSA
(§6) Dilution and assay plate: PS-Microplate, U form
(§7) Filtration Plate: Multiscreen FB Opaque Plate; 1.0 μM Type B Glasfiber filter
(§8) In order to prepare the filter plates, the presoak solution is aspirated by vacuum filtration. The plates are flushed twice with 200 μL flush buffer. 200 μL blocking buffer is added to the filter plate. The filter plate is then incubated with 200 μL presoak solution for 1 hour at room temperature.
(§9) The assay plate is filled with 25 μL assay buffer, 25 μL membranes (2.5 μg) suspended in assay buffer, 25 μL compound (agonist) in assay buffer, and 25 μL tracer (about 40000 cpm) in assay buffer. The filled plate is incubated for 1 hour with shaking.
(§10) The transfer from assay plate to filter plate is conducted. The blocking buffer is aspirated by vacuum filtration and washed two times with flush buffer. 90 μL is transferred from the assay plate to the filter plate. The 90 μL transferred from assay plate is aspirated and washed three times with 200 μL flush buffer. The plastic support is removed. It is dried for 1 hour at 60° C. 30 μL Microscint is added. The count is performed.

human VPAC1 = target: T4, human VPAC1 (Homo sapiens, UniProt P32241); assay: Filter binding assay, 125I-labeled VIP tracer, VPAC1 membranes; conditions: read-out: Human VPAC1 Receptor Binding (IC50; nM)
T4 construct: expressed in transfected cells
T4 sequence (P32241 31-457): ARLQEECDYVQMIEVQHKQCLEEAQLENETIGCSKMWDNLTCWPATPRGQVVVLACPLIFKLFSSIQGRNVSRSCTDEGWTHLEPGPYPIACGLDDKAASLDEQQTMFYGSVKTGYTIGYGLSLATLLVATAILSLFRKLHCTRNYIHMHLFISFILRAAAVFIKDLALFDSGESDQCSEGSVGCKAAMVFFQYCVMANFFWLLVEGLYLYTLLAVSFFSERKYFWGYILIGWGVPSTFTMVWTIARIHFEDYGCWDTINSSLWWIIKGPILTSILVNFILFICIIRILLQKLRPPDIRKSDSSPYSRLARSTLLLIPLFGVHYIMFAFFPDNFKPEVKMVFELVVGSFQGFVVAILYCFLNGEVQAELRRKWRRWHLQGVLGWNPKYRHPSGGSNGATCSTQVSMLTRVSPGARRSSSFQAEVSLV

human PAC1 = target: T5, human PAC1 (Homo sapiens, UniProt P41586); assay: Filter binding assay, 125I-labeled PACAP-27 tracer, PAC1 membranes; conditions: read-out: Human PAC1 Receptor Binding (IC50; nM)
T5 construct: expressed in transfected cells
T5 sequence (P41586 21-468): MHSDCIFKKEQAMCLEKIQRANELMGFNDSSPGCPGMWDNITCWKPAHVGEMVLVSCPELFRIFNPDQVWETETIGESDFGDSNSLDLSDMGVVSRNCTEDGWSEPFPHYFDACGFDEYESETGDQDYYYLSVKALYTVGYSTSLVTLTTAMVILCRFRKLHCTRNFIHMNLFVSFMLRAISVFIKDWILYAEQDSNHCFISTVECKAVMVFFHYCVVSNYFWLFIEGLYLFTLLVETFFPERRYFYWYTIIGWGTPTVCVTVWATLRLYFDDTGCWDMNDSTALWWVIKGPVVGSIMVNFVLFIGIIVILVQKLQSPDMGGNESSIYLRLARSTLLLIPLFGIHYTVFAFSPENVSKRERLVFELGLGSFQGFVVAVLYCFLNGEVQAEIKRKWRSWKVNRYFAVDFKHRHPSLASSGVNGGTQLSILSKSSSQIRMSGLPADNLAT
Protocol: as §1, §2, §3, §4, §5, §6, §7, §8, §9, §10

[3] = Rat serum stability (activity remaining, CHO-VPAC2 DiscoveRx read-out); assay type: in vitro ADME
Method in brief: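 Peptides preincubated overnight in rat serum at 37 °C without aprotinin versus 4 °C with aprotinin, then tested as 11-point 5× dilutions in duplicate on CHO-VPAC2 cells, 30 min at RT. cAMP measured by DiscoveRx kit against standards; EC50 derived for each aliquot.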

SMILES | EC50 (rat VPAC2 receptor) | EC50 (rat VPAC1 receptor) | EC50 (human VPAC2 [1]) | IC50 (human VPAC2 [2]) | IC50 (human VPAC1) | IC50 (human PAC1) | Rat Serum Stability (estimated purity in % after overnight incub.) [3]
CCCCCC(=O)N[C@@H](Cc1c[nH]cn1)C(=O)N[C@@H](CO)C(=O)N[C@@H](CC(=O)O)C(=O)N[C@@H](C)C(=O)N[C@H](C(=O)N[C@@H](Cc1ccccc1)C(=O)N[C@H](C(=O)N[C@@H](CC(=O)O)C(=O)N[C@@H](CC(N)=O)C(=O)N[C@@H](Cc1ccc(O)cc1)C(=O)N[C@H](C(=O)N[C@@H](CCCN)C(=O)N[C@@H](CC(C)C)C(=O)N[C@@H](CCCNC(=N)N)C(=O)NC(C)(C)C(=O)N[C@@H](CCC(N)=O)C(=O)N[C@H](C(=O)N[C@@H](C)C(=O)N[C@@H](C)C(=O)NC(C)(C)C(=O)N[C@@H](CCCCN)C(=O)N[C@@H](Cc1ccc(O)cc1)C(=O)N[C@@H](CC(C)C)C(=O)N[C@@H](CCC(N)=O)C(=O)N[C@@H](CS)C(=O)N[C@H](C(=O)N[C@@H](CCCN)C(=O)N[C@@H](CC(N)=O)C(=O)N[C@@H](CCCN)C(=O)NCC(=O)NCC(=O)N1CCC[C@H]1C(=O)N[C@@H](CO)C(=O)N[C@@H](CO)C(=O)NCC(=O)N[C@@H](C)C(=O)N1CCC[C@H]1C(=O)N1CCC[C@H]1C(=O)N1CCC[C@H]1C(=O)N[C@@H](CO)C(=O)O)[C@@H](C)CC)C(C)C)[C@@H](C)O)[C@@H](C)O)C(C)C [Agonist P372] (Hexanoyl-HSDAVFTDNYT[Orn]LR[Aib]QVAA[Aib]KYLQCI[Orn]N[Orn]GGPSSGAPPPS-OH; C-terminus assumed) | 0.18 nM | 1.67 nM | 0.65 nM | 4.82 nM | > 3000 nM | > 25000 nM | 13.93%
CCCCCC(=O)N[C@@H](Cc1c[nH]cn1)C(=O)N[C@@H](CO)C(=O)N[C@@H](CC(=O)O)C(=O)N[C@@H](C)C(=O)N[C@H](C(=O)N[C@@H](Cc1ccccc1)C(=O)N[C@H](C(=O)N[C@@H](CCC(=O)O)C(=O)N[C@@H](CCC(N)=O)C(=O)N[C@@H](Cc1ccc(OC)cc1)C(=O)N[C@H](C(=O)N[C@@H](CCCN)C(=O)N[C@@H](CC(C)C)C(=O)N[C@@H](CCCNC(=N)N)C(=O)NC(C)(C)C(=O)N[C@@H](CCC(N)=O)C(=O)N[C@H](C(=O)N[C@@H](C)C(=O)N[C@@H](C)C(=O)NC(C)(C)C(=O)N[C@@H](CCCN)C(=O)N[C@@H](Cc1ccc(O)cc1)C(=O)N[C@@H](CC(C)C)C(=O)N[C@@H](CCC(N)=O)C(=O)N[C@@H](CO)C(=O)N[C@H](C(=O)N[C@@H](CCCN)C(=O)N[C@@H](CCCN)C(=O)NCC(=O)NCC(=O)N1CCC[C@H]1C(=O)N[C@@H](CO)C(=O)N[C@@H](CO)C(=O)NCC(=O)N[C@@H](C)C(=O)N1CCC[C@H]1C(=O)N1CCC[C@H]1C(=O)N1CCC[C@H]1C(=O)N[C@@H](CO)C(N)=O)[C@@H](C)CC)C(C)C)[C@@H](C)O)[C@@H](C)O)C(C)C [Agonist P488] (Hexanoyl-HSDAVFTEQY(Me)T[Orn]LR[Aib]QVAA[Aib][Orn]YLQSI[Orn][Orn]GGPSSGAPPPS-NH2) | 0.09 nM | 1.66 nM | 0.19 nM | 0.64 nM | > 1000 nM | – | 193.17%
